Results published in PubChem BioAssay (NCI).
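Compound exposure: 48 hours, 5 concentrations, 96-well plates. TGI marks complete inhibition of growth.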

Columns and labels:
Experiment in all cases: NCI tumour cell line growth inhibition, 48 h
[1] = test system: SF-295 CNS
[2] = test system: SK-MEL-2 melanoma
[3] = test system: MOLT-4 leukemia
[4] = test system: K-562 leukemia
[5] = test system: MDA-N
[6] = test system: U251 CNS
[7] = test system: NCI-H226 lung
[8] = test system: HT29 colon
[9] = test system: SF-268 CNS
[10] = test system: OVCAR-8 ovarian
[11] = test system: PC-3 prostate
[12] = test system: A498 renal
[13] = test system: KM12 colon
[14] = test system: A549 NSCLC
[15] = test system: MALME-3M melanoma
[16] = test system: OVCAR-5 ovarian
[17] = test system: NCI-H23 lung
[18] = test system: OVCAR-4 ovarian
[19] = test system: SK-MEL-5 melanoma
[20] = test system: HCT-116 colon
[21] = test system: CAKI-1 renal
[22] = test system: MDA-MB-435
[23] = test system: HCC-2998 colon
[24] = test system: NCI-H460 lung
[25] = test system: SNB-19 CNS
[26] = test system: ACHN renal
[27] = test system: UO-31 renal
[28] = test system: SN12C renal
[29] = test system: RXF 393 renal
[30] = test system: SR leukemia
[31] = test system: UACC-257 melanoma
[32] = test system: EKVX NSCLC
[33] = test system: UACC-62 melanoma
[34] = test system: SF-539 CNS
[35] = test system: MDA-MB-231 breast
[36] = test system: TK-10 renal
[37] = test system: DU-145 prostate
[38] = test system: HOP-62 NSCLC
[39] = test system: BT-549 breast
[40] = test system: IGROV1 ovarian
[41] = test system: T-47D breast
[42] = test system: OVCAR-3 ovarian
[43] = test system: COLO 205 colon
[44] = test system: M14 melanoma
[45] = test system: CCRF-CEM leukemia
[46] = test system: SNB-75 CNS
[47] = test system: MCF7 breast
[48] = test system: NCI-H522 lung
[49] = test system: NCI/ADR-RES ovarian
[50] = test system: HCT-15 colon
[51] = test system: 786-0 renal
[52] = test system: SK-MEL-28 melanoma
[53] = test system: SK-OV-3 ovarian
[54] = test system: HL-60(TB) leukemia
[55] = test system: HS 578T breast
[56] = test system: SW-620 colon
[57] = test system: HOP-92 NSCLC

SMILES: O=[N+]([O-])c1ccc2nc(/C=C(\O)c3ccc(Cl)cc3)c(/C=C(\O)c3ccc(Cl)cc3)nc2c1
- TGI [1]: > 100 µM
- TGI [2]: > 100 µM
- TGI [3]: > 100 µM
- TGI [4]: > 100 µM
- TGI [5]: > 100 µM
- TGI [6]: > 100 µM
- TGI [7]: > 100 µM
- TGI [8]: > 100 µM
- TGI [9]: > 100 µM
- TGI [10]: > 100 µM
- TGI [11]: > 100 µM
- TGI [12]: > 100 µM
- TGI [13]: > 100 µM
- TGI [14]: > 100 µM
- TGI [15]: > 100 µM
- TGI [16]: > 100 µM
- TGI [17]: > 100 µM
- TGI [18]: > 100 µM
- TGI [19]: > 100 µM
- TGI [20]: > 100 µM
- TGI [21]: > 100 µM
- TGI [22]: > 100 µM
- TGI [23]: > 100 µM
- TGI [24]: > 100 µM
- TGI [25]: > 100 µM
- TGI [26]: > 100 µM
- TGI [27]: > 100 µM
- TGI [28]: > 100 µM
- TGI [29]: > 100 µM
- TGI [30]: > 100 µM
- TGI [31]: > 100 µM
- TGI [32]: > 100 µM
- TGI [33]: > 100 µM
- TGI [34]: > 100 µM
- TGI [35]: > 100 µM
- TGI [36]: > 100 µM
- TGI [37]: > 100 µM
- TGI [38]: > 100 µM
- TGI [39]: > 100 µM
- TGI [40]: > 100 µM
- TGI [41]: > 100 µM
- TGI [42]: > 100 µM
- TGI [43]: > 100 µM
- TGI [44]: > 100 µM
- TGI [45]: > 100 µM
- TGI [46]: > 100 µM
- TGI [47]: > 100 µM
- TGI [48]: 60.7 µM
- TGI [49]: > 100 µM
- TGI [50]: > 100 µM
- TGI [51]: > 100 µM

SMILES: COC(=O)[C@@]1(C)CCC[C@]2(C(=O)O)C3Cc4occc4[C@H](C)[C@@H]3CCC21 (stereo not given in full)
- TGI [1]: > 100 µM
- TGI [2]: > 100 µM
- TGI [3]: > 100 µM
- TGI [4]: > 100 µM
- TGI [5]: > 100 µM
- TGI [6]: > 100 µM
- TGI [7]: > 100 µM
- TGI [8]: 91.8 µM
- TGI [9]: > 100 µM
- TGI [10]: > 100 µM
- TGI [11]: 96.9 µM
- TGI [52]: > 100 µM
- TGI [53]: > 100 µM
- TGI [12]: > 100 µM
- TGI [13]: > 100 µM
- TGI [14]: > 100 µM
- TGI [15]: > 100 µM
- TGI [16]: > 100 µM
- TGI [17]: > 100 µM
- TGI [19]: > 100 µM
- TGI [20]: > 100 µM
- TGI [22]: > 100 µM
- TGI [23]: > 100 µM
- TGI [24]: > 100 µM
- TGI [25]: > 100 µM
- TGI [54]: > 100 µM
- TGI [26]: > 100 µM
- TGI [27]: > 100 µM
- TGI [28]: > 100 µM
- TGI [29]: > 100 µM
- TGI [30]: > 100 µM
- TGI [32]: > 100 µM
- TGI [33]: > 100 µM
- TGI [34]: > 100 µM
- TGI [35]: > 100 µM
- TGI [36]: > 100 µM
- TGI [37]: > 100 µM
- TGI [38]: > 100 µM
- TGI [39]: > 100 µM
- TGI [40]: > 100 µM
- TGI [41]: > 100 µM
- TGI [42]: > 100 µM
- TGI [44]: > 100 µM
- TGI [45]: > 100 µM
- TGI [55]: > 100 µM
- TGI [49]: 82 µM
- TGI [56]: > 100 µM
- TGI [57]: 81 µM
- TGI [51]: > 100 µM
